According to patent US9550728B2, “Thermo-responsive draw solute for forward osmosis and method for water desalination and purification using the same” (SEOUL NATIONAL UNIVERSITY R&DB FOUNDATION, priority 2011, dated 2017):
Blank lines part the entries; values can stand above or below the molecule they belong to.

Tests used:
[1] = Measurement of transmittances of aqueous draw solute solutions according to temperature variation (UV/IR spectrometer); format: physicochemical
Protocol: For this observation, the transmittances of aqueous solutions of the draw solutes were measured using a UV/IR spectrometer.

[2] = Measurement of flows and fluxes of water in forward osmosis through cellulose acetate semi-permeable membrane (brine vs draw solution)
Protocol: Referring to FIG. 11, the system has a structure in which glass tubes are arranged to face each other through a semi-permeable membrane. Unpurified water is arranged in one of the glass tubes and a draw solution is arranged in the other glass tube. After the glass tubes are placed in a temperature-controllable water bath, water desalination and purification experiments are conducted. Specifically, the experiments using LCST draw solutes are carried out in the order of low temperature (homogeneous phase) and high temperature (phase transition). The experiments using UCST draw solutes are carried out in the order of high temperature (homogeneous phase) and low temperature (phase transition). As the semi-permeable membrane, a cellulose acetate semi-permeable membrane is used. Specifically, the semi-permeable membrane includes a support layer composed of a polyester fiber coated with polyethylene and a dense layer composed of a cellulose triacetate fiber. The semi-permeable membrane is characterized by the ability to remove 95% or more of salts and low-molecular-weight materials.
Forward osmosis experiments were conducted at laboratory level using the thermo-responsive draw solutes synthesized above. The fluxes and directivities of water at low/high temperatures were confirmed with varying concentrations of brines and the draw solutions.
A stirrer was installed to maintain a uniform state of the solution in each glass tube and a thermostatic bath was installed for temperature control. After the temperature was maintained constant, the flux of water was measured. The amount of water flowing through the membrane was expressed in volume per unit area of the membrane and unit time (L/m^2h, LMH). The fluxes and directivities of water at low and high temperatures were measured at time points of each experiment. For better visual observation, a slight amount of dye was added to the system.

[3] = Verification of reproducibility of forward osmosis experiments (repeated low/high temperature cycles); settings: 2.0 M nBu-DETA, positive = flow from brine to nBu-DETA solution
Text: A draw solute for a forward osmosis process should be able to be continuously reused after the process. […] FIG. 26 is a graph showing changes in the flux of water during repeated experiments using 2.0 M nBu-DETA.
In a conventional process using ammonium carbonate/ammonium hydroxide, recondensation is required to reuse recovered ammonia and carbon dioxide molecules. In contrast, in the three repeated cycles of forward osmosis using nBu-DETA as a draw solute, any special process for dissolution except stirring was not carried out but the solute having undergone a phase transition were dissolved when hot water was exchanged with cold water in the thermostatic bath. As a result, similar levels of fluxes were obtained, which can be seen from FIG. 26 and Table 9.

[4] = aqueous solution of LCST draw solute at temperatures lower than the reference temperature
[5] = aqueous solution of UCST draw solute at temperatures equal to or higher than the reference temperature

Transmittance [1, 4]: 100%
SMILES: CCCCC(=O)NCCCN(C)CCCNC(=O)CCCC [Val-DAPMA]

Transmittance [1, 4]: 100%
SMILES: CCCC(=O)NCCN(C(C)C)C(C)C [nBu-DIPA]

Transmittance [1, 4]: 100%
SMILES: CCCCC(=O)NCCN(CC)CC [Val-DEEA]

SMILES: CC(C)C(=O)O [IBA]
Transmittance [1, 5]: 100%

Transmittance [1, 4]: 100%
SMILES: CCCCCOCC(C)O (stereo not drawn) [PNP]

Transmittance [1, 4]: 100%
SMILES: CCCCNC(=O)CC [N-BPA]

Transmittance [1, 4]: 100%
SMILES: CCN(CC)CCNC(=O)C(C)C [iBu-DEEA]

SMILES: OCCOc1ccccc1 [EGPE]
Transmittance [1, 5]: 100% | Flux of water from EGPE to NaCl ([2]; 6.4 M EGPE, 0.15 M brine, 5° C. (phase transition)): 0.036 LMH | Flux of water from NaCl to EGPE ([2]; 6.4 M EGPE, 0.3 M brine, 50° C.): 0.14 LMH

Transmittance [1, 4]: 100% | Flux (LMH) ([2]; 2 M DEH, 0.025 M NaCl, 40 (+0.5)° C., flow direction DEH→NaCl): 1.6422 LMH | Flux (LMH) ([2]; 2 M DEH, 0.05 M NaCl, 40 (+0.5)° C., DEH→NaCl): 1.1 LMH | Flux (LMH) ([2]; 2 M DEH, 0.1 M NaCl, 40 (+0.5)° C., DEH→NaCl): 0.71 LMH | Flux (LMH) ([2]; 2 M DEH, 0.15 M NaCl, 40 (+0.5)° C., DEH→NaCl): 0.36 LMH | Flux (LMH) ([2]; 4.0 M DEH, 0.60 M NaCl, 18 (±0.5)° C., flow direction NaCl→DEH): 0.29 LMH
SMILES: CCCCCCOCCOCCO [DEH]

SMILES: CC(C)C(N)=O [IBAm]
Transmittance [1, 5]: 100%

Transmittance [1, 4]: 100%
SMILES: CCCC(=O)NCCCN(C)CCCNC(=O)CCC [nBu-DAPMA]

Transmittance [1, 4]: 100% | Flux (L/m^2h) ([3]; 18° C., 1 Cycle): 0.61 L/m^2h | Flux (L/m^2h) ([3]; 18° C., 2 Cycle): 0.71 L/m^2h | Flux (L/m^2h) ([3]; 18° C., 3 Cycle): 0.71 L/m^2h | Flux (L/m^2h) ([3]; 70° C., 1 Cycle): −0.64 L/m^2h | Flux (L/m^2h) ([3]; 70° C., 2 Cycle): −0.79 L/m^2h | Flux (L/m^2h) ([3]; 70° C., 3 Cycle): −0.61 L/m^2h | Flux of water ([2]; 0.5M nBu-DETA draw solution, 0.050M NaCl, 18 (±0.5)° C., flow direction NaCl→nBu-DETA): 1.3 LMH | Flux of water ([2]; 0.5M nBu-DETA, 0.10M NaCl, 18 (±0.5)° C., NaCl→nBu-DETA): 0.90 LMH | Flux of water ([2]; 0.5M nBu-DETA, 0.15M NaCl, 18 (±0.5)° C., NaCl→nBu-DETA): 0.52 LMH | Flux of water ([2]; 1.0M nBu-DETA, 0.10M NaCl, 18 (±0.5)° C., NaCl→nBu-DETA): 1.5 LMH | Flux of water ([2]; 1.0M nBu-DETA, 0.15M NaCl, 70 (±0.5)° C., nBu-DETA→NaCl): 0.93 LMH | Flux of water ([2]; 1.0M nBu-DETA, 0.20M NaCl, 18 (±0.5)° C., NaCl→nBu-DETA): 0.77 LMH | Flux of water ([2]; 1.0M nBu-DETA, 0.2M NaCl, 70 (±0.5)° C., nBu-DETA→NaCl): 0.96 LMH | Flux of water ([2]; 1.0M nBu-DETA, 0.30M NaCl, 18 (±0.5)° C., NaCl→nBu-DETA): 0.52 LMH | Flux of water ([2]; 1.0M nBu-DETA, 0.35M NaCl, 70 (±0.5)° C., nBu-DETA→NaCl): 1.4 LMH | Flux of water ([2]; 1.0M nBu-DETA, 0.5M NaCl, 70 (±0.5)° C., nBu-DETA→NaCl): 1.8 LMH | Flux of water ([2]; 1.6M nBu-DETA, 0.15M NaCl, 70 (±0.5)° C., nBu-DETA→NaCl): 1.2 LMH | Flux of water ([2]; 1.6M nBu-DETA, 0.25M NaCl, 70 (±0.5)° C., nBu-DETA→NaCl): 1.2 LMH | Flux of water ([2]; 1.6M nBu-DETA, 0.35M NaCl, 70 (±0.5)° C., nBu-DETA→NaCl): 1.3 LMH | Flux of water ([2]; 1.6M nBu-DETA, 0.5M NaCl, 70 (±0.5)° C., nBu-DETA→NaCl): 1.2 LMH | Flux of water ([2]; 2.0M nBu-DETA, 0.05M NaCl, 70 (±0.5)° C., flow direction nBu-DETA→NaCl): −0.071 LMH | Flux of water ([2]; 2.0M nBu-DETA, 0.1M NaCl, 70 (±0.5)° C., nBu-DETA→NaCl): 0.36 LMH | Flux of water ([2]; 2.0M nBu-DETA, 0.15M NaCl, 70 (±0.5)° C., nBu-DETA→NaCl): 0.75 LMH | Flux of water ([2]; 2.0M nBu-DETA, 0.20M NaCl, 18 (±0.5)° C., NaCl→nBu-DETA): 1.7 LMH | Flux of water ([2]; 2.0M nBu-DETA, 0.25M NaCl, 70 (±0.5)° C., nBu-DETA→NaCl): 0.96 LMH | Flux of water ([2]; 2.0M nBu-DETA, 0.35M NaCl, 70 (±0.5)° C., nBu-DETA→NaCl): 1.2 LMH | Flux of water ([2]; 2.0M nBu-DETA, 0.40M NaCl, 18 (±0.5)° C., NaCl→nBu-DETA): 0.65 LMH | Flux of water ([2]; 2.0M nBu-DETA, 0.5M NaCl, 70 (±0.5)° C., nBu-DETA→NaCl): 1.4 LMH | Flux of water ([2]; 2.0M nBu-DETA, 0.60M NaCl, 18 (±0.5)° C., NaCl→nBu-DETA): 0.26 LMH
SMILES: CCCC(=O)NCCN(CCNC(=O)CCC)C(=O)CCC [nBu-DETA]
